According to ChEMBL document CHEMBL1138044, “4-amido-2-aryl-1,2,4-triazolo[4,3-a]quinoxalin-1-ones as new potent and selective human A3 adenosine receptor antagonists. synthesis, pharmacological evaluation, and ligand-receptor modeling studies” (J Med Chem, 2006):

Key:
[1] = target: T1, Adenosine receptor A1 (Bos taurus, UniProt P28190); assay: Displacement of [3H]DPCPX from adenosine A1 receptor in bovine brain membranes; type: cell membranes
T1 sequence (P28190 whole entry): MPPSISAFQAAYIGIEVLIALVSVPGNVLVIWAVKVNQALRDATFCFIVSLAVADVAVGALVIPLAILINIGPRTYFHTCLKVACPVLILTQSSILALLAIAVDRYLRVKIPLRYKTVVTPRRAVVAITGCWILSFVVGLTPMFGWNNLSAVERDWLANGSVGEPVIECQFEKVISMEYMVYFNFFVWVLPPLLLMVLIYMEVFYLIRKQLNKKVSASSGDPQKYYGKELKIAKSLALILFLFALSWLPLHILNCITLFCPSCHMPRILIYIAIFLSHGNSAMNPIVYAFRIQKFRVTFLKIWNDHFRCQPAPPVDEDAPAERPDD

[2] = target: T2, Adenosine receptor A3 (Homo sapiens, UniProt P0DMS8); assay: Displacement of [125I]AB-MECA from human adenosine A3 receptor expressed in CHO cells; type: cell-based
T2 sequence (P0DMS8 whole entry): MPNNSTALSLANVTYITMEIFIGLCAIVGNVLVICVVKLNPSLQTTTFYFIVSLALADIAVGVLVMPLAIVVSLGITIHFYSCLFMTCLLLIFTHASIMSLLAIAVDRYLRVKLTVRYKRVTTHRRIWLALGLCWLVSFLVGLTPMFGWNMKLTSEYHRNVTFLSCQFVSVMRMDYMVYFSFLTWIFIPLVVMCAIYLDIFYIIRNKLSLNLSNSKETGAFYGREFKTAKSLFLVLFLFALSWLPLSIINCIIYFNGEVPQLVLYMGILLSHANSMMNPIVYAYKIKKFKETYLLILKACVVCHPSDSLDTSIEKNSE

[3] = target: T3, Adenosine receptor A1 (Homo sapiens) (UniProt P30542); assay: Inhibition of [3H]DPCPX binding to human adenosine A1 receptor at 10 uM
T3 sequence (whole entry): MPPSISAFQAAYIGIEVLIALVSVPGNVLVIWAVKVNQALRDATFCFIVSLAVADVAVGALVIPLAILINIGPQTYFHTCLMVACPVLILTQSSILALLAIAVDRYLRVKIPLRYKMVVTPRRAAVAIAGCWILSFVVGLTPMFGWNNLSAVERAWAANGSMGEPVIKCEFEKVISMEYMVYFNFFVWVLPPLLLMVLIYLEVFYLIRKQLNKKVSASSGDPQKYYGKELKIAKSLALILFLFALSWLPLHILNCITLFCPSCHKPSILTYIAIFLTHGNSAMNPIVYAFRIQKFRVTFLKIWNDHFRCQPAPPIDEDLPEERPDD

[4] = target: T4, Adenosine receptor A2a (Homo sapiens, UniProt P29274); assay: Inhibition of [3H]NECA binding to human adenosine A2A receptor at 10 uM
T4 sequence (P29274 whole entry): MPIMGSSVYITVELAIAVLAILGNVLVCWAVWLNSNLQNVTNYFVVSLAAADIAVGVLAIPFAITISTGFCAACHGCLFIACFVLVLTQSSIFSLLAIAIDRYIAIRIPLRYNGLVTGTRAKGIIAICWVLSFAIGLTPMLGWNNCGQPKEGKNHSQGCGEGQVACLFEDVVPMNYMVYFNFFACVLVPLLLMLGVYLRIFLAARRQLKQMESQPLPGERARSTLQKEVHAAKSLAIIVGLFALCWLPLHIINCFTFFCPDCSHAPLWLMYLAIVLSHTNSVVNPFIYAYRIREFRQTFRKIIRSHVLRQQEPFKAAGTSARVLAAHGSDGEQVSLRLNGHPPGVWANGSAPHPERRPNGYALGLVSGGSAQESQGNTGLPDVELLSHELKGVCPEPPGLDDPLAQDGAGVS

[5] = tested on: Adenosine receptor A2a (Bos taurus); assay: Inhibition of [3H]CGS 21680 binding to adenosine A2A receptor in bovine striatal membranes at 10 uM; conditions: Striatum, Membrane
[6] = target: T5, Adenosine receptor A1 (Bos taurus) (UniProt P28190); assay: Inhibition of [3H]DPCPX binding to adenosine A1 receptor in bovine brain membranes at 10 uM; type: cell membranes
T5 sequence (whole entry): T1 sequence (P28190 whole entry)

[7] = target: T6, Adenosine receptor A2b (Homo sapiens) (UniProt P29275); assay: Inhibition of NECA-stimulated cAMP level in CHO cells transfected with human adenosine A2B receptor at 1 uM; type: functional, cell-based
T6 sequence (whole entry): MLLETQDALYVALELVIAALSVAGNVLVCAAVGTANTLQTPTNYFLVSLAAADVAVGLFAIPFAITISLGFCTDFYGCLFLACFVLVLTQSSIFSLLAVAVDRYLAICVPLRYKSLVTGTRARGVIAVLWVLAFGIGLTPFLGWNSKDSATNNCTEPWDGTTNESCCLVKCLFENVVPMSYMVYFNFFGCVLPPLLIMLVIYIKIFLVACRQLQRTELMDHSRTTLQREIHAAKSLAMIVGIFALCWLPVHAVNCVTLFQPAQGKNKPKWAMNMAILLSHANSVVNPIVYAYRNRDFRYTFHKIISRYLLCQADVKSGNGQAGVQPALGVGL

[8] = target: T2, Adenosine receptor A3; assay: Antagonist activity against Cl-IB-MECA inhibited cAMP level in CHO cells transfected with human A3 receptor; type: functional, cell-based
[9] = target: T7, Adenosine receptor A2b (Homo sapiens, UniProt P29275); assay: Inhibition of NECA-stimulated cAMP level in CHO cells transfected with human adenosine A2B receptor; type: functional, cell-based
T7 sequence (P29275 whole entry): T6 sequence (whole entry)

[10] = target: T4, Adenosine receptor A2a; assay: Displacement of [3H]NECA from human adenosine A2A receptor expressed in CHO cells; type: cell-based
[11] = target: T8, Adenosine receptor A3 (Homo sapiens) (UniProt P0DMS8); assay: Inhibition of [125I]AB-MECA binding to human adenosine A3 receptor at 1 uM
T8 sequence (whole entry): T2 sequence (P0DMS8 whole entry)

[12] = target: T9, Adenosine receptor A1 (Homo sapiens, UniProt P30542); assay: Displacement of [3H]DPCPX from human adenosine A1 receptor expressed in CHO cells; type: cell-based
T9 sequence (P30542 whole entry): T3 sequence (whole entry)

[13] = target: Adenosine receptor A2a (Bos taurus); assay: Displacement of [3H]CGS 21680 from adenosine A2A receptor in bovine striatal membranes

Structure (SMILES) | Ki [1] | Ki [2] | inhibition [3] | inhibition [4] | inhibition [5] | also measured
COc1ccc(-n2nc3c(NC(C)=O)nc4ccccc4n3c2=O)cc1 | 245 nM | 35.7 nM | 34% | 6% |  | 
O=C(Nc1nc2ccccc2n2c(=O)n(-c3ccc([N+](=O)[O-])cc3)nc12)c1ccccc1 |  | 100 nM |  |  | 26% | inhibition [6]: 55%
COc1ccc(-n2nc3c(NC(=O)C(c4ccccc4)c4ccccc4)nc4c([N+](=O)[O-])cccc4n3c2=O)cc1 | 260 nM |  | 11% | 2% | 0% | 
CC(=O)Nc1nc2c(N)cccc2n2c(=O)n(-c3ccccc3)nc12 | 1 nM | 48 nM | 32% |  |  | 
CC(=O)Nc1nc2c([N+](=O)[O-])cccc2n2c(=O)n(-c3ccccc3)nc12 | 6 nM |  |  |  | 36% | inhibition [11]: 18%
COc1ccc(-n2nc3c(NC(C)=O)nc4c([N+](=O)[O-])cccc4n3c2=O)cc1 |  |  |  |  | 7% | inhibition [11]: 36%; inhibition [6]: 0%
O=C(Nc1nc2ccccc2n2c(=O)n(-c3ccccc3)nc12)c1ccccc1 |  |  |  |  |  | Ki [12]: 87.8 nM; Ki [10]: 88.2 nM
COc1ccc(-n2nc3c(NC(=O)c4ccccc4)nc4c([N+](=O)[O-])cccc4n3c2=O)cc1 |  | 217 nM |  |  | 15% | inhibition [6]: 35%
CC(=O)Nc1nc2ccccc2n2c(=O)n(-c3ccccc3)nc12 |  |  |  | 22% |  | Ki [12]: 2000 nM
Nc1cccc2c1nc(N(C(=O)c1ccccc1)C(=O)c1ccccc1)c1nn(-c3ccccc3)c(=O)n12 | 79 nM | 1240 nM |  |  | 36% | 
O=C(Nc1nc2ccccc2n2c(=O)n(-c3ccc([N+](=O)[O-])cc3)nc12)C(c1ccccc1)c1ccccc1 |  |  |  |  | 0% | inhibition [11]: 13%; inhibition [6]: 30%
COc1ccc(-n2nc3c(NC(=O)C(c4ccccc4)c4ccccc4)nc4ccccc4n3c2=O)cc1 | 7.2 nM | 44 nM | 25% |  |  | inhibition [7]: 37%; IC50 [8]: 215 nM; IC50 [9]: > 1000 nM
O=C(c1ccccc1)N(C(=O)c1ccccc1)c1nc2c([N+](=O)[O-])cccc2n2c(=O)n(-c3ccccc3)nc12 |  |  |  |  | 0% | inhibition [11]: 27%; inhibition [6]: 39%
COc1ccc(-n2nc3c(N(C(=O)c4ccccc4)C(=O)c4ccccc4)nc4c([N+](=O)[O-])cccc4n3c2=O)cc1 |  | 343 nM |  |  |  | inhibition [6]: 20%

Continued, in another order:

Ki [1] | Ki [2] | inhibition [3] | inhibition [4] | inhibition [5] | Structure (SMILES) | also measured
393 nM | 1 nM | 45% | 24% |  | COc1ccc(-n2nc3c(NC(=O)c4ccccc4)nc4c(N)cccc4n3c2=O)cc1 | inhibition [7]: 17%; IC50 [8]: 8.6 nM; IC50 [9]: > 1000 nM
1010 nM | 2.9 nM | 37% |  | 23% | COc1ccc(-n2nc3c(NC(=O)c4ccccc4)nc4ccccc4n3c2=O)cc1 | Ki [10]: 3580 nM
3.9 nM | 14.9 nM | 12% | 49% | 29.5% | O=C(Nc1nc2c([N+](=O)[O-])cccc2n2c(=O)n(-c3ccccc3)nc12)C(c1ccccc1)c1ccccc1 | 
1.6 nM | 8.65 nM | 2.5% |  | 12% | Nc1cccc2c1nc(NC(=O)C(c1ccccc1)c1ccccc1)c1nn(-c3ccccc3)c(=O)n12 | Ki [10]: 627 nM
363 nM | 5.5 nM |  |  |  | COc1ccc(-n2nc3c(NC(C)=O)nc4c(N)cccc4n3c2=O)cc1 | Ki [12]: 2700 nM; Ki [10]: 1100 nM
175 nM | 3.29 nM | 2% | 26% |  | COc1ccc(-n2nc3c(N(C(=O)c4ccccc4)C(=O)c4ccccc4)nc4ccccc4n3c2=O)cc1 | inhibition [7]: 13%; IC50 [8]: 31.8 nM; IC50 [9]: > 1000 nM
10.2 nM | 0.81 nM |  | 58% |  | O=C(Nc1nc2ccccc2n2c(=O)n(-c3ccccc3)nc12)C(c1ccccc1)c1ccccc1 | Ki [12]: 18.8 nM; Ki [13]: 1160 nM
42 nM | 22 nM |  |  | 27.8% | Nc1cccc2c1nc(NC(=O)c1ccccc1)c1nn(-c3ccccc3)c(=O)n12 | Ki [12]: 98 nM; Ki [10]: 4850 nM
 | 22 nM | 15% | 25% | 0% | O=C(Nc1nc2c([N+](=O)[O-])cccc2n2c(=O)n(-c3ccccc3)nc12)c1ccccc1 | inhibition [6]: 32%
77.5 nM | 2.58 nM | 0% | 31% | 0% | COc1ccc(-n2nc3c(NC(=O)C(c4ccccc4)c4ccccc4)nc4c(N)cccc4n3c2=O)cc1 | 
30 nM | 5.2 nM | 1% | 43% |  | O=C(c1ccccc1)N(C(=O)c1ccccc1)c1nc2ccccc2n2c(=O)n(-c3ccccc3)nc12 | inhibition [7]: 15%; IC50 [8]: 28.3 nM; IC50 [9]: > 1000 nM
